Data on eight compounds can be found in patent publication US7982042B2, “Thiozanthene derivatives as delta-opioid modulators” (priority 2003, dated 2011).

SMILES strings stand for the structures. Where two headings read alike, the source gives them in different places.

The target in experiment [1] is T1, delta opioid receptor (Mus musculus, UniProt P32300).
T1 construct: host or cells: NG108-15 cells (membranes, purchased)
Description: [35S]GTPγS binding assay in NG108-15 cell membrane. The experiment is classed as biochemical. On the procedure:
NG108-15 cell membranes were purchased from Applied Cell Sciences (Rockville, Md.). An 8 mg/mL portion of membrane protein was suspended in 10 mM TRIS-HC pH 7.2, 2 mM EDTA, 10% sucrose.
Membranes were maintained at 4-8° C. A 1 mL portion of membranes was added into 10 mL cold binding assay buffer. The assay buffer contained 50 mM Tris, pH 7.6, 5 mM MgCl2, 100 mM NaCl, 1 mM DTT and 1 mM EGTA. The membrane suspension was homogenized with a Polytron for 2 times and centrifuged at 3000 rpm for 10 min. The supernatent was then centrifuged at 18,000 rpm for 20 min. The pellet was saved in a tube and 10 ml assay buffer was added into the tube. The pellet and buffer were mixed with a Polytron.
The pellet membranes (75 μg/ml) were preincubated with SPA (10 mg/ml) at 25° C. for 45 min in the assay buffer. […] GTPγS in the same Tris buffer containing 100 μM GDP in total volume of 200 μl. Increasing concentrations of receptor agonists were used to stimulate [^35S] GTPγS binding. The basal binding was tested in the absent agonists and no specific binding was tested in the present 10 μM unlabeled GTPγS. The data were analyzed on a Top counter.
% of Basal=(stimulate−non specific)*100/(basal−non specific). EC50 values are calculated using a Prism program.

Experiment [2] has as its target T2, Rat brain delta opioid receptor (Rattus norvegicus, UniProt P33533).
T2 construct: from tissue; host or cells: rat brain
The experiment can be described thus: Rat brain delta opioid receptor binding. As to conditions: rDOR Ki.

The target of experiment [3] is T3, human delta opioid receptor (Homo sapiens, UniProt P41143).
T3 construct: purchased Receptor Biology, Inc. (Baltimore, Md.); host or cells: CHO cells expressing the human delta receptor (membranes)
T3 sequence (P41143 whole entry): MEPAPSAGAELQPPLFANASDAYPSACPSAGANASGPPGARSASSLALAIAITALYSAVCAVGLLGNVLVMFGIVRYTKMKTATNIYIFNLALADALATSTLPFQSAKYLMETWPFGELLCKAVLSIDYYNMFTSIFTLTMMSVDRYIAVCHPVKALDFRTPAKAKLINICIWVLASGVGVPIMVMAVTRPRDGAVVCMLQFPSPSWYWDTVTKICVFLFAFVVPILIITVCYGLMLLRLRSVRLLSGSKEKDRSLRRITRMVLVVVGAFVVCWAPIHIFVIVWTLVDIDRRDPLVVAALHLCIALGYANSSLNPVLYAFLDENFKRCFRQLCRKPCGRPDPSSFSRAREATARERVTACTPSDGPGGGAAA
The experiment can be described thus: [35S]GTPγS binding assay in CHO-hδ cell membranes. As to conditions: hDOR GTPγS EC50, human delta opioid receptor GTPγS functional assay. The experiment is classed as biochemical. Background: GTPγS is a poorly hydrolysed GTP analogue; its binding reports G protein activation.

For experiment [4], the target named is T4, Rat brain mu opioid receptor (Rattus norvegicus, UniProt P33535).
T4 construct: from tissue; host or cells: forebrain of male Sprague Dawley rats
T4 sequence (P33535 whole entry): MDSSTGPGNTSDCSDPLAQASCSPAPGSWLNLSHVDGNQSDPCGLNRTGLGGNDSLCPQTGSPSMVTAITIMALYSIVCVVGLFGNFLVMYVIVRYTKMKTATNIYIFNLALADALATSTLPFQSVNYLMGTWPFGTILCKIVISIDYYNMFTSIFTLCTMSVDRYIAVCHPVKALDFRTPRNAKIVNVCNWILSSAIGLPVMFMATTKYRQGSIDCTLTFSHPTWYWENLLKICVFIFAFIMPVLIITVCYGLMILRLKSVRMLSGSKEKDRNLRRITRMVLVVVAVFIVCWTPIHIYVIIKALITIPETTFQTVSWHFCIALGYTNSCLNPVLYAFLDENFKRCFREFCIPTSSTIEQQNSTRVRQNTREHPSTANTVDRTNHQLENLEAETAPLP
Description: Rat brain mu opioid receptor binding assay ([3H]DAMGO).

Experiment [5] deals with mice. The experiment can be described thus: Mouse Abdominal Irritant Test (MAIT). The experiment is classed as in vivo. As to conditions: @ 30 (dose printed in the cell). The protocol:
The procedure used was that described by Collier et al. (1968), with minor modifications. Thirty minutes after the administration of test drug, the animals received an i.p. injection of 5.5 mg/kg of acetylcholine bromide. The mice were then placed into large glass animal jars and were continuously observed for the first occurrence of a characteristic behavioral response (twisting and elongation of the body which extends throughout the hindlimbs) within the specified observation period of 10 minutes. […] Data % of Basal=(stimulate−non-specific)*100/(basal−non-specific). EC50 value values are calculated using a Prism program.

Experiment [6] concerns the target T5, human mu opioid receptor (Homo sapiens, UniProt P35372).
T5 construct: purchased Receptor Biology, Inc. (Baltimore, Md.); host or cells: CHO cells expressing the human mu receptor (membranes)
Description: [35S]GTPγS binding assay in CHO-hμ cell membranes. In kind it is biochemical. As to conditions: inhibition relative to 1 uM DAMGO, read-out: hMOR GTPγS % I @10 μM. On the procedure:
CHO-hμ cell membranes are purchased from Receptor Biology, Inc. (Baltimore, Md.). About 10 mg/ml of membrane protein is suspended in 10 mM TRIS-HC pH 7.2, 2 mM EDTA, 10% sucrose.
Membranes are maintained at 4-8° C. 1 ml of membranes is added into 15 ml cold binding assay buffer. The assay buffer contains 50 mM HEPES, pH 7.6, 5 mM MgCl2, 100 mM NaCl, 1 mM DTT and 1 mM EDTA. The membrane suspension is homogenized with a Polytron 2 times and centrifuged at 3000 rpm for 10 min. The supernatant is then centrifuged at 18,000 rpm for 20 min. The pellet is saved in a tube and 10 ml assay buffer is added to the tube. The pellet and buffer are mixed with a Polytron.
The pellet membranes (20 μg/ml) are preincubated with SPA (10 mg/ml) at 25 C′ for 45 min in the assay buffer. The SPA (5 mg/ml) coupled with membranes (10 μg/ml) is then incubated with 0.5 nM [^35S]GTPgS in the same HEPES buffer containing 50 μM GDP in total volume of 200 μl. Increasing concentrations of receptor agonists are used to stimulate [^35S]GTPgS binding. The basal binding is tested in the absence of agonists and non-specific binding is tested in the present 10 μM unlabeled GTPγS. The data are analyzed on a Top counter.
% of Basal=(stimulate−non-specific)*100/(basal−non specific). % inhibition value values are calculated using a formula, % Inhibition=(% Basal of 1 uM DAMGO−% Basal of compound)*100/(% Basal of 1 uM DAMGO−100)

The mark [7] stands for this setting: DOR GTPγS EC50, delta opioid receptor GTPγS functional assay.

T1 sequence (P32300 whole entry): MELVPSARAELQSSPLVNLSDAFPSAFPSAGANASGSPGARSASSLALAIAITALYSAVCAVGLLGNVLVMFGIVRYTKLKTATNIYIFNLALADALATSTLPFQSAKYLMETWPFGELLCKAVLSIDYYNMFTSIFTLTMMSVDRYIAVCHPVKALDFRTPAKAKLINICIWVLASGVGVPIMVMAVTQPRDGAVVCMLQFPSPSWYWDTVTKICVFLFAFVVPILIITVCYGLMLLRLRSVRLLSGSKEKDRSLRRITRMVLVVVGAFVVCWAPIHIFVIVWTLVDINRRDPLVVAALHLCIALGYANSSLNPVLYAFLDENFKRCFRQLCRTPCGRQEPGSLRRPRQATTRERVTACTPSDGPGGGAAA
T2 sequence (P33533 whole entry): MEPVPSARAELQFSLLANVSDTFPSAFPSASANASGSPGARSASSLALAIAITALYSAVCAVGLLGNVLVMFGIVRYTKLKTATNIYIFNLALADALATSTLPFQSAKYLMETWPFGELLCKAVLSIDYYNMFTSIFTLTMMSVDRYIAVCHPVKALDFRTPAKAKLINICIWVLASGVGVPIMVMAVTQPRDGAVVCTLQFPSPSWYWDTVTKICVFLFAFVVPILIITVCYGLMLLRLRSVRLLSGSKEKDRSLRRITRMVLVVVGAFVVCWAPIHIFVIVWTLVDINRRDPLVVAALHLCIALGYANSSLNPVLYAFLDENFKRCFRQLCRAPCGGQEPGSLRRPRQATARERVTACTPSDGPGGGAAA
T5 sequence (P35372 whole entry): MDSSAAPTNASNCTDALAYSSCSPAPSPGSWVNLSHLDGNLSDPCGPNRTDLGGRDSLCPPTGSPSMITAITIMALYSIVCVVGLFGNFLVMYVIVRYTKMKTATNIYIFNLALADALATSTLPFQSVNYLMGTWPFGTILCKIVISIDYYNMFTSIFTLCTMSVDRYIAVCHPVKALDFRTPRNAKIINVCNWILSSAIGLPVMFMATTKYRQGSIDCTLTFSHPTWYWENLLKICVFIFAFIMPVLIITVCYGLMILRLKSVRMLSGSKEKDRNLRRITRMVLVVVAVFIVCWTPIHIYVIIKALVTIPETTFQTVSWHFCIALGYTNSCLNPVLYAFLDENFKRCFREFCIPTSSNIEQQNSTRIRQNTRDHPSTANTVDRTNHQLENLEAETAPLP

As to `CCN(CC)C(=O)c1ccc2c(c1)Oc1ccccc1C2=C1CC2CCC(C1)N2` (single isomer, unassigned) [Compound 53, 9-(8-Aza-bicyclo[3.2.1]oct-3-ylidene)-9H-xanthene-3-carboxylic acid diethylamide], the results for the EC50 in experiment [1] (setting [7]) and in experiment [3] were 2060 nM and 257 nM, respectively. Further, the values for the Ki in experiment [2] and in experiment [4] (read-out: rMOR Ki) were 50.1 nM and above 100 nM, respectively.

For the compound `CCN(CC)C(=O)c1ccc2c(c1)Oc1ccccc1C2=C1CC2CCC(C1)N2Cc1ccoc1` [Compound 25, 9-(8-Furan-3-ylmethyl-8-aza-bicyclo[3.2.1]oct-3-ylidene)-9H-xanthene-3-carboxylic acid diethylamide], the inhibition constant (Ki) in experiment [2] amounted to 0.01 nM; in experiment [4] (rMOR Ki) it was 879 nM. Further, in experiment [3], the EC50 turned out to be 1.39 nM. Also, the “MAIT % I” value in experiment [5] is 30(@ 30) %. For the same compound, the inhibition at 10 µM in experiment [6] amounted to 74%.

On to `CCN(CC)C(=O)c1ccc2c(c1)Oc1ccccc1C2=C1CC2CCC(C1)N2` (single isomer, unassigned) [Compound 52, 9-(8-Aza-bicyclo[3.2.1]oct-3-ylidene)-9H-xanthene-3-carboxylic acid diethylamide], for which the EC50 is 66 nM in experiment [1] (setting [7]) and 4.44 nM in experiment [3]. For the same compound, the Ki in experiment [2] was 0.61 nM; in experiment [4] (rMOR Ki), above 100 nM.

The compound `CCN(CC)C(=O)c1ccc2c(c1)Oc1c(Br)cccc1C2=C1CC2CCC(C1)N2` [Compound 94, 9-(8-Aza-bicyclo[3.2.1]oct-3-ylidene)-5-bromo-9H-xanthene-3-carboxylic acid diethylamide] gave an EC50 in experiment [1] (setting [7]) of 14.1 nM. Besides, the Ki in experiment [2] amounted to 2.28 nM; in experiment [4] (rMOR Ki), 674 nM.

For `CCNC(=O)c1ccc2c(c1)Oc1ccccc1C2=C1CC2CCC(C1)N2` (single isomer, unassigned) [Compound 55], the EC50 in experiment [1] (delta opioid receptor GTPγS functional assay, read-out: DOR GTPγS EC50) is above 1000 nM. Further, the Ki in experiment [2] was 66.5 nM; in experiment [4] (read-out: rMOR Ki), 1860 nM.

As to `CCN(CC)C(=O)c1ccc2c(c1)Oc1c(cccc1-c1cccnc1)C2=C1CC2CCC(C1)N2` [Compound 101, 9-(8-Aza-bicyclo[3.2.1]oct-3-ylidene)-5-pyridin-3-yl-9H-xanthene-3-carboxylic acid diethylamide], the EC50 in experiment [1] (setting [7]) turned out to be 19.3 nM. In addition, the results for the Ki in experiment [2] and in experiment [4] (rMOR Ki) were 9.14 nM and 532 nM, respectively.

In experiment [1] (setting [7]), `CCN(CC)C(=O)c1ccc2c(c1)Oc1c(cccc1-c1ccncc1)C2=C1CC2CCC(C1)N2` [Compound 96, 9-(8-Aza-bicyclo[3.2.1]oct-3-ylidene)-5-pyridin-4-yl-9H-xanthene-3-carboxylic acid diethylamide] had an EC50 of 35.3 nM. Also, the Ki in experiment [2] worked out at 1.69 nM; in experiment [4] (rMOR Ki), 4220 nM.

Take `CCN(CC)C(=O)c1ccc2c(c1)Oc1ccc(F)cc1C2=C1CC2CCC(C1)N2` [Compound 69]: the EC50 in experiment [1] (setting [7]) turned out to be 126 nM. For the same compound, the Ki in experiment [2] came out at 4.99 nM; in experiment [4] (rMOR Ki), 5830 nM.

What is called EC50 is the midpoint of the concentration-response curve. One may read the Ki as the equilibrium dissociation constant of an inhibitor or competing ligand from its target.
